# Test results: US20100152129A1 (priority 2008, published 2010)
# Legend:
# Panc-1 cells [1] = assay: Microarray gene expression analysis; format: cell-based, human; conditions: Panc-1, microarray
# Excerpt: The goal of the microarray analysis was to evaluate putative gene expression signatures associated with the in vitro synergistic effect of the combination therapy of Gemcitabine with […]-00 in Panc-1 cells. The time points (3 hrs, 6 hrs, 12 hrs) were chosen to establish early molecular changes in the transcription profile for probable biomarkers and mechanism of action for the combination therapy. Approximately 20 million cells were lysed in Trizol Reagent (Invitrogen Corp, USA) and passed through a 21-gauge needle for 5-10 times before RNA extraction was performed. Total RNA extraction was performed using the RNeasy Mini kit (Qiagen, USA) according to the manufacturer's protocol. The final total RNA was eluted in nuclease-free water and the concentration/purity was determined by Nanodrop spectrophotometer (Thermo Fisher Scientific, Delaware, USA). cDNA generation and labeling: 20 μg of total RNA was reverse transcribed using amino allyl dUTP and oligo dT, the resulting cDNA was indirectly labeled with Cy3/Cy5 dyes (GE Healthcare, USA) using a fluorescent labeling kit (Promega Biosciences, USA). The concentration and dye incorporation of the labeled products were determined by Nanodrop spectrophotometer (Thermo Fisher Scientific, Delaware, USA). Equal amounts of labeled cDNA were denatured at 95° C. for 5 mins, cooled and microfuged at 13200 rpm for 5 mins before hybridization. Array fabrication and hybridization: 70-mer transcript oligonucleotides representing 36,480 human genes was purchased from Operon Biotechnologies (Germany) and spotted onto aminosilane coated glass slides (ArrayIt, USA) by contact printing using a Omnigrid (OG100) spotter (Genomic Solutions Inc, USA). Post printing, the slides were cross-linked with UV light at […], vacuumed, sealed and stored in the dark. The slides were pre-processed for background reduction using Pronto (Promega Life sciences, USA) pre-hyb kit as per the manufacturer's instructions. Hybridization was carried out in the GeneTAC Hybstation (Genomic Solutions Inc, USA) for 18 hrs. The hybridization protocol is as follows: 6 hrs at 42° C. (with agitation), 6 hrs at 35° C. (with agitation), and 6 hrs at 30° C. (with agitation). Post hybridization, the arrays were washed according to the manufacturer's protocol. The slides were dried by centrifugation at 1600 rpm for 5 mins. Scanning and image analysis: Post drying, the slides were scanned in a laser scanner (Genomic Solutions, USA) for Cy3 and Cy5 detection. The PMT settings were adjusted using the auto-exposure feature of the scanner. The TIFF files thus generated were exported to GeneTAC Integrator software (Genomic Solutions, USA) for image analysis. The resultant CSV file containing the annotated genome and the corresponding ratios were further used for data analysis.
# Panc-1 cells [2] = assay: Propidium iodide-based fluorescence cytotoxicity assay; format: cell-based; conditions: Homo sapiens, PANC-1; single agent, 0.1 nM
# Protocol: The combination of P276-00 and Gemcitabine was screened for its synergistic effect in Panc-1 cells using propidium iodide based fluorescence cytotoxicity assay.
# Test System: The Panc-1 cell line was procured from ATCC (American Tissue type Culture Collection), USA. Catalog number: CRL-1469 and the frozen vial was stored in liquid nitrogen container. Propidium iodide dye was procured from Sigma-Aldrich, USA. Catalog number: P-4170-100 mg and it was stored at 2-8° C.
# Method: Panc-1 cells were seeded at a density of 2000 cells/well, in a 200 μL in tissue culture grade 96 well plate and allowed to recover for 24 hrs in a humidified 5%±0.2 CO2 incubator at 37° C.±0.5° C. After 24 hrs, 1 μL of 200 X (200 times higher than required concentration is denoted as 200×) compound (dissolved in neat DMSO), as per Table 1 or 2 was added to the wells. The final DMSO concentration was 0.5% in wells. The plate was incubated for 24 hrs in humidified 5%±0.2 CO2 incubator at 37±0.5° C.
# After 24 hrs Minimum Essential Medium (MEM) from the Gemcitabine treated wells was removed and washed two times with fresh MEM and followed by addition of 200 μL of fresh MEM per well. 1 μL of 200× (200 times higher than required concentration is denoted as 200×) compound (dissolved in neat DMSO) was then added as per the Table 1 and 2 designs. The final DMSO concentration was 0.5% in wells which also served as the vehicle control for the study. After 72 hrs the plate was removed from CO2 incubator and spent MEM aspirated from the wells and supplemented with fresh MEM. This was followed by addition of 25 μL of propidium iodide (50 μg/ml in medium) per well. The same plate was frozen at −80° C. for 24 hrs and then thawed and allowed to come to room temperature. The fluorescence at a wavelength of 530 nm excitation and 620 nm emission was read.
# The percent cytotoxicity was calculated using the following formula
# Panc-1 cells [3] = assay: Protein expression using high content cell imaging system, and efficacy score; format: cell-based; conditions: for Efficacy score: cumulative over proteins of Table 7
# Method: The data was generated using cell imaging system, where, cells after drug exposure were treated with protein specific antibody, followed by detection markers for the antibody. The images were generated and protein levels quantitated as an indication of drug effect.
# Methodology: Panc-1 cells were seeded at a density of 5000 cells per well in 96 well plates and allowed recovery for 24 hrs in 5% CO2 incubator. After recovery, cells were challenged with Gemcitabine (IC30) for 24 hrs. After 24 hrs Gemcitabine was removed and fresh medium was added. […] The combination efficacy was identified against single treatments. At the end of the experiment Panc-1 cells were fixed and permeabilized. All the primary antibodies were added at a concentration according to manufacture protocol. After one hour incubation the cells were washed three times and labeled with secondary antibodies tagged with Dye Light 548 and nucleus was stained with Hoechest3342. After antibody labeling, cells were stained with the Cellomics whole Cell Stain Green to identify the cell's cytoplasmic area. Then all the plates were scanned in Cellomics ArrayScan® VTI HCS Reader. The results were analyzed using software that is designed for measuring the read from the imaging system.
# Expression of proteins listed in Table 7 were determined in terms of fluorescence unit obtained by using target activation algorithm from High content imaging system from Cellomics. • Protein expression data expressed as fluorescent units from Table 7 were used to generate expression ratio by comparing drug treatments (individual or combination) against the normal control with no drug treatment. The ratio of expression which is considered as dys-regulation (1.5 fold above or below the range for up-regulation and down regulation respectively) is subtracted from the normal range (±1.5) and is used to measure the efficacy score.
# Expression ratio=protein expression during drug treatment/protein expression under normal control.
# Efficacy score =Cumulative score (expression ratio−±1.50) for all proteins.
# [4] = 6 hours post treatment, control 3
# [5] = 36 hours post treatment, control 98
smiles,measurement,setting,value
"Nc1ccn([C@@H]2O[C@H](CO)[C@@H](O)C2(F)F)c(=O)n1 [Gemcitabine, 2′, 2′-difluorodeoxycytidine]",CDK8 gene expression value (log value of intensities),Panc-1 cells [1],−0.03
same,DICER1 gene expression value (log value of intensities),Panc-1 cells [1],−0.16
same,DLG5 gene expression value (log value of intensities),Panc-1 cells [1],−0.19
same,DNAI1 gene expression value (log value of intensities),Panc-1 cells [1],0.03
same,FA38A gene expression value (log value of intensities),Panc-1 cells [1],−0.70
same,FGF5 gene expression value (log value of intensities),Panc-1 cells [1],0.28
same,HELLS gene expression value (log value of intensities),Panc-1 cells [1],0.40
same,HIST1H2BO gene expression value (log value of intensities),Panc-1 cells [1],−0.71
same,ID1 gene expression value (log value of intensities),Panc-1 cells [1],−0.60
same,MKKS gene expression value (log value of intensities),Panc-1 cells [1],−0.02
same,PPIL4 gene expression value (log value of intensities),Panc-1 cells [1],0.36
same,RRM2 gene expression value (log value of intensities),Panc-1 cells [1],0.69
same,SLC19A2 gene expression value (log value of intensities),Panc-1 cells [1],0.37
same,SNX7 gene expression value (log value of intensities),Panc-1 cells [1],0.27
same,TMPRSS3 gene expression value (log value of intensities),Panc-1 cells [1],0.85
same,cytotoxicity at 0.0001 µM,Panc-1 cells [2],10%
same,PTN protein expression,"Panc-1 cells [3]; 6 hours post treatment, control 1",6 fluorescence units
same,GADD45-α protein expression,Panc-1 cells [3]; [4],4 fluorescence units
same,ID1 protein expression,Panc-1 cells [3]; [4],7 fluorescence units
same,P27 protein expression,"Panc-1 cells [3]; 6 hours post treatment, control 6",4 fluorescence units
same,CDC25B protein expression,"Panc-1 cells [3]; 6 hours post treatment, control 7",8 fluorescence units
same,CDKN2A protein expression,"Panc-1 cells [3]; 6 hours post treatment, control 8",60 fluorescence units
same,CCND1 protein expression,"Panc-1 cells [3]; 6 hours post treatment, control 74",83 fluorescence units
same,GAPDH protein expression,"Panc-1 cells [3]; 6 hours post treatment, control 80",84 fluorescence units
same,CASP3 protein expression,"Panc-1 cells [3]; 6 hours post treatment, control 147",115 fluorescence units
same,MMP-1 protein expression,"Panc-1 cells [3]; 6 hours post treatment, control 501",448 fluorescence units
same,COX15 protein expression,"Panc-1 cells [3]; 6 hours post treatment, control 627",1100 fluorescence units
same,COX2 protein expression,"Panc-1 cells [3]; 6 hours post treatment, control 635",462 fluorescence units
same,BAX protein expression,"Panc-1 cells [3]; 6 hours post treatment, control 819",892 fluorescence units
same,VEGF protein expression,"Panc-1 cells [3]; 6 hours post treatment, control 829",448 fluorescence units
same,BCL2 protein expression,"Panc-1 cells [3]; 6 hours post treatment, control 830",630 fluorescence units
same,pRB protein expression,"Panc-1 cells [3]; 6 hours post treatment, control 1240",1318 fluorescence units
same,Efficacy score,Panc-1 cells [3]; 6 hours,1.6
same,GADD45-α protein expression,"Panc-1 cells [3]; 16 hours post treatment, control 13",70 fluorescence units
same,CDC25B protein expression,"Panc-1 cells [3]; 16 hours post treatment, control 54",50 fluorescence units
same,CDKN2A protein expression,"Panc-1 cells [3]; 16 hours post treatment, control 64",57 fluorescence units
same,P27 protein expression,"Panc-1 cells [3]; 16 hours post treatment, control 67",72 fluorescence units
same,PTN protein expression,"Panc-1 cells [3]; 16 hours post treatment, control 76",68 fluorescence units
same,ID1 protein expression,"Panc-1 cells [3]; 16 hours post treatment, control 77",62 fluorescence units
same,CCND1 protein expression,"Panc-1 cells [3]; 16 hours post treatment, control 90",66 fluorescence units
same,GAPDH protein expression,"Panc-1 cells [3]; 16 hours post treatment, control 100",98 fluorescence units
same,CASP3 protein expression,"Panc-1 cells [3]; 16 hours post treatment, control 202",570 fluorescence units
same,VEGF protein expression,"Panc-1 cells [3]; 16 hours post treatment, control 579",604 fluorescence units
same,BCL2 protein expression,"Panc-1 cells [3]; 16 hours post treatment, control 644",693 fluorescence units
same,BAX protein expression,"Panc-1 cells [3]; 16 hours post treatment, control 711",926 fluorescence units
same,COX15 protein expression,"Panc-1 cells [3]; 16 hours post treatment, control 718",1134 fluorescence units
same,MMP-1 protein expression,"Panc-1 cells [3]; 16 hours post treatment, control 929",604 fluorescence units
same,COX2 protein expression,"Panc-1 cells [3]; 16 hours post treatment, control 1109",1151 fluorescence units
same,pRB protein expression,"Panc-1 cells [3]; 16 hours post treatment, control 2583",1931 fluorescence units
same,Efficacy score,Panc-1 cells [3]; 16 hours,7.6
same,GADD45-α protein expression,"Panc-1 cells [3]; 36 hours post treatment, control 19",51 fluorescence units
same,COX2 protein expression,"Panc-1 cells [3]; 36 hours post treatment, control 86",55 fluorescence units
same,P27 protein expression,"Panc-1 cells [3]; 36 hours post treatment, control 96",67 fluorescence units
same,CCND1 protein expression,Panc-1 cells [3]; [5],75 fluorescence units
same,CDC25B protein expression,Panc-1 cells [3]; [5],29 fluorescence units
same,GAPDH protein expression,Panc-1 cells [3]; [5],59 fluorescence units
same,ID1 protein expression,Panc-1 cells [3]; [5],26 fluorescence units
same,PTN protein expression,"Panc-1 cells [3]; 36 hours post treatment, control 100",94 fluorescence units
same,CASP3 protein expression,"Panc-1 cells [3]; 36 hours post treatment, control 265",633 fluorescence units
same,BAX protein expression,"Panc-1 cells [3]; 36 hours post treatment, control 715",1783 fluorescence units
same,COX15 protein expression,"Panc-1 cells [3]; 36 hours post treatment, control 722",1990 fluorescence units
same,VEGF protein expression,"Panc-1 cells [3]; 36 hours post treatment, control 1093",807 fluorescence units
same,MMP-1 protein expression,"Panc-1 cells [3]; 36 hours post treatment, control 1316",807 fluorescence units
same,BCL2 protein expression,"Panc-1 cells [3]; 36 hours post treatment, control 1410",698 fluorescence units
same,CDKN2A protein expression,"Panc-1 cells [3]; 36 hours post treatment, control 1441",1483 fluorescence units
same,pRB protein expression,"Panc-1 cells [3]; 36 hours post treatment, control 2840",2188 fluorescence units
same,Efficacy score,Panc-1 cells [3]; 36 hours,7.4
